From EP4624471A1, “PKMYT1 INHIBITOR, PREPARATION METHOD THEREFOR, AND PHARMACEUTICAL COMPOSITION AND USE THEREOF” (Shanghai Qilu Pharmaceutical Research and Development …, priority 2022, dated 2024)

Target: T1, PKMYT1 enzyme (Homo sapiens, UniProt Q99640)
T1 construct: purchased Thermo Scientific A33387
T1 sequence (Q99640 1-499): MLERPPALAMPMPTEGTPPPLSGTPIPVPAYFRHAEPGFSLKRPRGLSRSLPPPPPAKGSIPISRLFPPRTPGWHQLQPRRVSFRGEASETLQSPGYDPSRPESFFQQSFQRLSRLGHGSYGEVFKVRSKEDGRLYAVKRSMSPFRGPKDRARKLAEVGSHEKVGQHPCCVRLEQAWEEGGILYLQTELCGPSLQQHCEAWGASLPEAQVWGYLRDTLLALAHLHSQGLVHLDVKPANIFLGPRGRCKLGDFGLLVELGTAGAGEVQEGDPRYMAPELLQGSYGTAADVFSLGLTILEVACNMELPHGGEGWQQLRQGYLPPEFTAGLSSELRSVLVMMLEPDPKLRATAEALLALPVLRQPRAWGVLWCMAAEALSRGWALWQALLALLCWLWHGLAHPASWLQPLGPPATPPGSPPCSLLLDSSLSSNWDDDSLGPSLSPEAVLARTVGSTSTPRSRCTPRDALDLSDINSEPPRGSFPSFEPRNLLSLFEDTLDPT
Assay: PKMYT1 enzyme inhibition activity, ADP-GLO method
Assay type: biochemical
Details: PKMYT1 enzyme 10 nM, ATP 5 µM, 37°C 90 minutes; read-out: ADP-GLO IC50
Procedure: Enzyme inhibition activity of compounds of the present disclosure
The enzyme activity of some of the example compounds was verified using the ADP-GLO method.
PKMYT1 enzyme protein was purchased from Thermo Scientific (Cat. No.: A33387), and the ADP-GLO kit was purchased from Promega (Cat. No.: V9103).
PKMYT1 enzyme activity reaction buffer: 70 mM HEPES, 3 mM MgCl2, 3 mM MnCl2, 50 µg mL-1PEG20000, 3 µM sodium orthovanadate, 1.2 mM DTT.
The reaction plate with the added compounds was centrifuged at 2500 rpm for 1 minute.
The prepared enzyme solution was added to the reaction plate, 5 µL per well, and the final concentration of enzyme was 10 nM. The reaction plate was centrifuged at 1000 rpm for 1 minute. The reaction plate was placed in an incubator at 37°C for 15 minutes.
The prepared ATP substrate solution was added to the reaction plate, 5 µL per well, and the final concentration of ATP was 5 µM. The reaction plate was centrifuged at 1000 rpm for 1 minute. After sealing the plate with aluminum foil, the plate was placed in an incubator and the reaction was carried out at 37°C for 90 minutes.
10 µL of ADP-glo™ reagent was added to stop the kinase reaction and consume unconsumed ATP, leaving only ADP and a very low ATP background. The reaction plate was centrifuged at 1000 rpm for 1 minute. After sealing the plate with aluminum foil, the reaction was carried out at room temperature for 60 minutes.
ADP was converted to ATP by adding 20 µL of kinase detection reagent, and luciferase and luciferin were introduced to detect ATP. The reaction plate was centrifuged at 1000 rpm for 1 minute. After sealing the plate with aluminum foil, the reaction was carried out at room temperature for 60 minutes.
The ADP-GLO luminescence signal values were read by the microplate reader PHERAstar, and the readings were analyzed.

SMILES: Cc1ccc(O)c(C)c1-n1c(N)c(C(N)=O)c2cnc(-c3ccccc3)nc21 [Example 11, 6-Amino-7-(3-hydroxy-2,6-dimethylphenyl)-2-phenyl-7H-pyrrolo[2,3-d]pyrimidine-5-carboxamide]
- IC50: 15.7 nM

SMILES: Cc1ccc(O)c(C)c1-n1c(N)c(C(N)=O)c2cnc(C#CC3CC3)nc21 [Example 12, 6-Amino-2-(cyclopropylethynyl)-7-(3-hydroxy-2,6-dimethylphenyl)-7H-pyrrolo[2,3-d]pyrimidine-5-carboxamide]
- IC50: 6.58 nM

SMILES: Cc1ccc(O)c(C)c1-n1c(N)c(C(N)=O)c2cnc(N3CCCCC3)nc21 [Example 13, 6-Amino-7-(3-hydroxy-2,6-dimethylphenyl)-2-(piperidin-1-yl)-7H-pyrrolo[2,3-d]pyrimidine-5-carboxamide]
- IC50: 12.2 nM

SMILES: Cc1ccc(O)c(C)c1-n1c(N)c(C(N)=O)c2cnc(C#N)nc21 [Example 14, 6-Amino-2-cyano-7-(3-hydroxy-2,6-dimethylphenyl)-7H-pyrrolo[2,3-d]pyrimidine-5-carboxamide]
- IC50: 24.3 nM

SMILES: COc1ccc(CNc2ncc3c(C(N)=O)c(N)n(-c4c(C)ccc(O)c4C)c3n2)cc1 [Example 15, 6-Amino-7-(3-hydroxy-2,6-dimethylphenyl)-2-((4-methoxybenzyl)amino)-7H-pyrrolo[2,3-d]pyrimidine-5-carboxamide]
- IC50: 168 nM

SMILES: Cc1ccc(O)c(C)c1-n1c(N)c(C(N)=O)c2cnc(C3=CCOCC3)nc21 [Example 16, 6-Amino-2-(3,6-dihydro-2H-pyran-4-yl)-7-(3-hydroxy-2,6-dimethylphenyl)-7H-pyrrolo[2,3-d]pyrimidine-5-carboxamide]
- IC50: 11.7 nM

SMILES: CCN(CC)c1ncc2c(C(N)=O)c(N)n(-c3c(C)ccc(O)c3C)c2n1 [Example 17, 6-Amino-2-(diethylamino)-7-(3-hydroxy-2,6-dimethylphenyl)-7H-pyrrolo[2,3-d]pyrimidine-5-carboxamide]
- IC50: 71.5 nM

SMILES: Cc1ccc(O)c(C)c1-n1c(N)c(C(N)=O)c2cnc(C3CCOCC3)nc21 [Example 18, 6-Amino-7-(3-hydroxy-2,6-dimethylphenyl)-2-(tetrahydro-2H-pyran-4-yl)-7H-pyrrolo[2,3-d]pyrimidine-5-carboxamide]
- IC50: 18.3 nM

SMILES: Cc1nc(C)c2c(C(N)=O)c(N)n(-c3c(C)ccc(O)c3C)c2n1 [Example 19, 6-Amino-7-(3-hydroxy-2,6-dimethylphenyl)-2,4-dimethyl-7H-pyrrolo[2,3-d]pyrimidine-5-carboxamide]
- IC50: 4.5 nM

SMILES: Cc1cc2c(C(N)=O)c(N)n(-c3c(C)cc(F)c(O)c3C)c2nc1C [Example 23, 2-Amino-1-(4-fluoro-3-hydroxy-2,6-dimethylphenyl)-5,6-dimethyl-1H-pyrrolo[2,3-b]pyridine-3-carboxamide]
- IC50: 8.58 nM

SMILES: Cc1ccc(O)c(C)c1-n1c(N)c(C(N)=O)c2cnc(C#CC(C)(C)O)nc21 [Example 26, 6-Amino-7-(3-hydroxy-2,6-dimethylphenyl)-2-(3-hydroxy-3-methylbut-1-yn-1-yl)-7H-pyrrolo[2,3-d]pyrimidine-5-carboxamide]
- IC50: 11.3 nM

SMILES: Cc1ccc(O)c(C)c1-n1c(N)c(C(N)=O)c2cnc(C#CC(C)(C)F)nc21 [Example 27]
- IC50: 7.15 nM

SMILES: Cc1nc(Cl)c2c(C(N)=O)c(N)n(-c3c(C)ccc(O)c3C)c2n1 [Example 28, 6-Amino-4-chloro-7-(3-hydroxy-2,6-dimethylphenyl)-2-methyl-7H-pyrrolo[2,3-d]pyrimidine-5-carboxamide]
- IC50: 13.8 nM

SMILES: Cc1ccc(O)c(C)c1-n1c(N)c(C(N)=O)c2cnc(C)c(F)c21 [Example 29, 2-Amino-7-fluoro-1-(3-hydroxy-2,6-dimethylphenyl)-6-methyl-1H-pyrrolo[3,2-c]nicotinamide]
- IC50: 12.4 nM

SMILES: Cc1ccc(O)c(C)c1-n1c(N)c(C(N)=O)c2cnccc21 [Example 30, 2-Amino-1-(3-hydroxy-2,6-dimethylphenyl)-1H-pyrrolo[3,2-c]pyridine-3-carboxamide]
- IC50: 13.7 nM

SMILES: Cc1cc2c(cn1)c(C(N)=O)c(N)n2-c1c(C)ccc(O)c1C [Example 31, 2-Amino-1-(3-hydroxy-2,6-dimethylphenyl)-6-methyl-1H-pyrrolo[3,2-c]pyridine-3-carboxamide]
- IC50: 11.1 nM

SMILES: CCc1ccc(O)c(CC)c1-n1c(N)c(C(N)=O)c2cnc(C)nc21 [Example 32, 6-Amino-7-(2,6-diethyl-3-hydroxyphenyl)-2-methyl-7H-pyrrolo[2,3-d]pyrimidine-5-carboxamide]
- IC50: 263 nM

SMILES: Cc1ccc(O)c(C)c1-n1c(N)c(C(N)=O)c2cnc(Nc3ccccc3)nc21 [Example 33, 6-Amino-7-(3-hydroxy-2,6-dimethylphenyl)-2-(phenylamino)-7H-pyrrolo[2,3-d]pyrimidine-5-carboxamide]
- IC50: 11.3 nM

SMILES: Cc1ccc(O)c(C)c1-n1c(N)c(C(N)=O)c2cnc(N3CCOCC3)nc21 [Example 34, 6-Amino-7-(3-hydroxy-2,6-dimethylphenyl)-2-morpholino-7H-pyrrolo[2,3-d]pyrimidine-5-carboxamide]
- IC50: 25.7 nM

SMILES: Cc1ccc(O)c(C)c1-n1c(N)c(C(N)=O)c2cnc(N3CCCC3)nc21 [Example 35, 6-Amino-7-(3-hydroxy-2,6-dimethylphenyl)-2-(pyrrolidin-1-yl)-7H-pyrrolo[2,3-d]pyrimidine-5-carboxamide]
- IC50: 37.8 nM

SMILES: Cc1ccc(O)c(C)c1-n1c(N)c(C(N)=O)c2cnc(N(C)C)nc21 [Example 36, 6-Amino-2-(dimethylamino)-7-(3-hydroxy-2,6-dimethylphenyl)-7H-pyrrolo[2,3-d]pyrimidine-5-carboxamide]
- IC50: 17.4 nM

SMILES: Cc1ccc(O)c(C)c1-n1c(N)c(C(N)=O)c2cnc(N3CCC(F)(F)CC3)nc21 [Example 37, 6-Amino-2-(4,4-difluoropiperidin-1-yl)-7-(3-hydroxy-2,6-dimethylphenyl)-7H-pyrrolo[2,3-d]pyrimidine-5-carboxamide]
- IC50: 3.09 nM

SMILES: Cc1ccc(O)c(C)c1-n1c(N)c(C(N)=O)c2cnc(N)nc21 [Example 40, 2,6-Diamino-7-(3-hydroxy-2,6-dimethylphenyl)-7H-pyrrolo[2,3-d]pyrimidine-5-carboxamide]
- IC50: 23.6 nM

SMILES: Cc1ccc(O)c(C)c1-n1c(N)c(C(N)=O)c2cnc(C3CC3)nc21 [Example 41, 6-Amino-2-cyclopropyl-7-(3-hydroxy-2,6-dimethylphenyl)-7H-pyrrolo[2,3-d]pyrimidine-5-carboxamide]
- IC50: 11.2 nM

SMILES: CC(C)=Cc1ncc2c(C(N)=O)c(N)n(-c3c(C)ccc(O)c3C)c2n1 [Example 42, 6-Amino-7-(3-hydroxy-2,6-dimethylphenyl)-2-(2-methylprop-1-en-1-yl)-7H-pyrrolo[2,3-d]pyrimidine-5-carboxamide]
- IC50: 6.62 nM

SMILES: Cc1cc2c(C(N)=O)c(N)n(-c3c(C)cc(Cl)c(O)c3C)c2nc1C [Example 43, 2-Amino-1-(4-chloro-3-hydroxy-2,6-dimethylphenyl)-5,6-dimethyl-1H-pyrrolo[2,3-b]pyridine-3-carboxamide]
- IC50: 26.4 nM

SMILES: Cc1cc2c(C(N)=O)c(N)n(-c3c(C)c(O)c(Cl)c(F)c3C)c2nc1C [Example 44, 2-Amino-1-(4-chloro-3-fluoro-5-hydroxy-2,6-dimethylphenyl)-5,6-dimethyl-1H-pyrrolo[2,3-b]pyridine-3-carboxamide]
- IC50: 11.8 nM

SMILES: Cc1ccc(O)c(C)c1-n1c(N)c(C(N)=O)c2cncnc21 [Example 45, 6-Amino-7-(3-hydroxy-2,6-dimethylphenyl)-7H-pyrrolo[2,3-d]pyrimidine-5-carboxamide]
- IC50: 10.8 nM
